Assay results published in ChEMBL document CHEMBL3400018, “One-pot catalyst free synthesis of novel kojic acid tagged 2-aryl/alkyl substituted-4H-chromenes and evaluation of their antimicrobial and anti-biofilm activities” (Bioorg Med Chem Lett, 2015).
Values after ≈ are worked out from the molar mass of the structure shown. Active and inactive are the calls of the source. No cut-off for these calls is given here.

Key:
Micrococcus luteus = assay: Antimicrobial activity against Micrococcus luteus MTCC 2470 after 24 hrs by well diffusion method; type: functional; settings: MTCC 2470, 24 h
Staphylococcus aureus [1] = assay: Antimicrobial activity against Staphylococcus aureus MLS-16 MTCC 2940 assessed as inhibition of biofilm formation after 24 hrs; type: functional, organism-based; settings: MLS-16, 24 h
Bacillus subtilis [2] = assay: Antimicrobial activity against Bacillus subtilis MTCC 121 assessed as inhibition of biofilm formation after 24 hrs; type: functional, organism-based; settings: MTCC 121, 24 h
Raoultella planticola = assay: Antimicrobial activity against Klebsiella planticola MTCC 530 after 24 hrs by well diffusion method; type: functional; settings: MTCC 530, 24 h
Bacillus subtilis [3] = assay: Antimicrobial activity against Bacillus subtilis MTCC 121 after 24 hrs by well diffusion method; type: functional; settings: MTCC 121, 24 h
Bacillus subtilis [4] = assay: Bactericidal activity against Bacillus subtilis MTCC 121 after 24 hrs by Mueller Hinton agar plate assay; type: functional; settings: MTCC 121, 24 h
Escherichia coli [5] = assay: Antimicrobial activity against Escherichia coli MTCC 739 assessed as inhibition of biofilm formation after 24 hrs; type: functional, organism-based; settings: MTCC 739, 24 h
Escherichia coli [6] = assay: Bactericidal activity against Escherichia coli MTCC 739 after 24 hrs by Mueller Hinton agar plate assay; type: functional; settings: MTCC 739, 24 h
Staphylococcus aureus [7] = assay: Antimicrobial activity against Staphylococcus aureus MLS-16 MTCC 2940 after 24 hrs by well diffusion method; type: functional; settings: MLS-16 MTCC 2940, 24 h
Pseudomonas aeruginosa = assay: Antimicrobial activity against Pseudomonas aeruginosa MTCC 2453 after 24 hrs by well diffusion method; type: functional; settings: MTCC 2453, 24 h
Candida albicans = assay: Antimicrobial activity against Candida albicans MTCC 3017 after 24 hrs by well diffusion method; type: functional, organism-based
Escherichia coli [8] = assay: Antimicrobial activity against Escherichia coli MTCC 739 after 24 hrs by well diffusion method; type: functional; settings: MTCC 739, 24 h
Staphylococcus aureus [9] = assay: Bactericidal activity against Staphylococcus aureus MLS-16 MTCC 2940 after 24 hrs by Mueller Hinton agar plate assay; type: functional; settings: MLS-16, 24 h

| Structure (SMILES) | MIC (Micrococcus luteus) [µg/mL] | IC50 (Staphylococcus aureus [1]) [µg/mL] | IC50 (Bacillus subtilis [2]) [µg/mL] | MIC (Bacillus subtilis [3]) [µg/mL] | IC50 (Escherichia coli [5]) [µg/mL] | MIC (Staphylococcus aureus [7]) [µg/mL] | MIC (Pseudomonas aeruginosa) [µg/mL] | MIC (Candida albicans) | MIC (Escherichia coli [8]) [µg/mL] | MIC (Raoultella planticola) [µg/mL] | MBC (Bacillus subtilis [4]) [µg/mL] | MBC (Escherichia coli [6]) [µg/mL] | MBC (Staphylococcus aureus [9]) [µg/mL] |
| --- | --- | --- | --- | --- | --- | --- | --- | --- | --- | --- | --- | --- | --- |
| O=c1cc(CO)oc(C2C=C(c3cccs3)Oc3ccccc32)c1O (configuration not stated) | > 125 | 8.8 (≈ 24.8 µM) | 4.6 (≈ 13 µM) | 7.8 (≈ 22 µM) | 18.2 (≈ 51.4 µM) | 7.8 (≈ 22 µM) | > 125 | inactive | 15.6 (≈ 44 µM) | > 125 | 7.8 (≈ 22 µM) | 31.2 (≈ 88 µM) | 15.6 (≈ 44 µM) |
| CC1=CC(c2oc(CO)cc(=O)c2O)c2ccccc2O1 (configuration not stated) | > 125 | – | – | > 125 | – | > 125 | > 125 | inactive | > 125 | > 125 | – | – | – |
| CCC1=CC(c2oc(CO)cc(=O)c2O)c2ccccc2O1 (configuration not stated) | > 125 | – | – | > 125 | – | > 125 | > 125 | inactive | > 125 | > 125 | – | – | – |
| CC(C)CC1=CC(c2oc(CO)cc(=O)c2O)c2ccccc2O1 (configuration not stated) | > 125 | 9.2 (≈ 28 µM) | 11.3 (≈ 34.4 µM) | 7.8 (≈ 23.8 µM) | > 125 | 7.8 (≈ 23.8 µM) | > 125 | inactive | > 125 | > 125 | 15.6 (≈ 47.5 µM) | > 125 | 15.6 (≈ 47.5 µM) |
| O=C(O)c1cn(C2CC2)c2cc(N3CCNCC3)c(F)cc2c1=O [CIPROFLOXACIN] | 0.9 (≈ 2.72 µM) | – | – | 0.9 (≈ 2.72 µM) | – | 0.9 (≈ 2.72 µM) | 0.9 (≈ 2.72 µM) | inactive | 0.9 (≈ 2.72 µM) | 0.9 (≈ 2.72 µM) | 0.9 (≈ 2.72 µM) | 1.9 (≈ 5.73 µM) | 1.9 (≈ 5.73 µM) |
| O=c1cc(CO)oc(C2C=C(c3ccc4ccccc4c3)Oc3ccccc32)c1O (configuration not stated) | > 125 | – | – | > 125 | – | > 125 | > 125 | inactive | > 125 | > 125 | – | – | – |
| O=c1cc(CO)oc(C2C=C(c3cc(F)cc(F)c3)Oc3ccccc32)c1O (configuration not stated) | > 125 | – | – | > 125 | – | > 125 | > 125 | inactive | > 125 | > 125 | – | – | – |
| O=c1cc(CO)oc(C2C=C(c3ccccc3Br)Oc3ccccc32)c1O (configuration not stated) | > 125 | – | – | > 125 | – | > 125 | > 125 | inactive | > 125 | > 125 | – | – | – |
| O=c1cc(CO)oc(C2C=C(c3ccc4c(c3)OCO4)Oc3ccccc32)c1O (configuration not stated) | > 125 | > 125 | 8.1 (≈ 20.6 µM) | 7.8 (≈ 19.9 µM) | 17.8 (≈ 45.4 µM) | > 125 | > 125 | inactive | 15.6 (≈ 39.8 µM) | > 125 | 15.6 (≈ 39.8 µM) | 31.2 (≈ 79.5 µM) | > 125 |
| CC[C@H]1OC(=O)[C@H](C)[C@@H](O[C@H]2C[C@@](C)(OC)[C@@H](O)[C@H](C)O2)[C@H](C)[C@@H](O[C@@H]2O[C@H](C)C[C@H](N(C)C)[C@H]2O)[C@](C)(O)C[C@@H](C)C(=O)[C@H](C)[C@@H](O)[C@]1(C)O [ERYTHROMYCIN] | – | 0.23 (≈ 0.313 µM) | 0.19 (≈ 0.259 µM) | – | 0.31 (≈ 0.422 µM) | – | – | – | – | – | – | – | – |

More lines, main results first:

| MIC (Micrococcus luteus) [µg/mL] | IC50 (Staphylococcus aureus [1]) [µg/mL] | IC50 (Bacillus subtilis [2]) [µg/mL] | MIC (Bacillus subtilis [3]) [µg/mL] | IC50 (Escherichia coli [5]) [µg/mL] | MIC (Staphylococcus aureus [7]) [µg/mL] | MIC (Pseudomonas aeruginosa) [µg/mL] | MIC (Candida albicans) | MIC (Escherichia coli [8]) [µg/mL] | Structure (SMILES) | MIC (Raoultella planticola) [µg/mL] | MBC (Bacillus subtilis [4]) [µg/mL] | MBC (Escherichia coli [6]) [µg/mL] | MBC (Staphylococcus aureus [9]) [µg/mL] |
| --- | --- | --- | --- | --- | --- | --- | --- | --- | --- | --- | --- | --- | --- |
| > 125 | 18.6 (≈ 51.3 µM) | 20.1 (≈ 55.5 µM) | 15.6 (≈ 43 µM) | 9.1 (≈ 25.1 µM) | 15.6 (≈ 43 µM) | > 125 | inactive | 7.8 (≈ 21.5 µM) | Cc1ccc(C2=CC(c3oc(CO)cc(=O)c3O)c3ccccc3O2)cc1 (configuration not stated) | > 125 | 31.2 (≈ 86.1 µM) | 15.6 (≈ 43 µM) | 31.2 (≈ 86.1 µM) |
| > 125 | 15.4 (≈ 40.7 µM) | 10.2 (≈ 27 µM) | 7.8 (≈ 20.6 µM) | 6.1 (≈ 16.1 µM) | 15.6 (≈ 41.2 µM) | > 125 | inactive | 7.8 (≈ 20.6 µM) | COc1ccc(C2=CC(c3oc(CO)cc(=O)c3O)c3ccccc3O2)cc1 (configuration not stated) | > 125 | 15.6 (≈ 41.2 µM) | 7.8 (≈ 20.6 µM) | 31.2 (≈ 82.5 µM) |
| > 125 | – | – | > 125 | – | > 125 | > 125 | inactive | > 125 | O=c1cc(CO)oc(C2C=C(c3ccccc3)Oc3ccc(Br)cc32)c1O (configuration not stated) | > 125 | – | – | – |
| > 125 | – | – | > 125 | – | > 125 | > 125 | inactive | > 125 | O=c1cc(CO)oc(C2C=C(c3ccccc3)Oc3c(Cl)cc(Br)cc32)c1O (configuration not stated) | > 125 | – | – | – |
| > 125 | – | – | > 125 | – | > 125 | > 125 | inactive | > 125 | O=c1cc(CO)oc(C2C=C(c3ccccc3)Oc3ccc(Cl)cc32)c1O (configuration not stated) | > 125 | – | – | – |
| > 125 | 9.1 (≈ 23.8 µM) | 3.6 (≈ 9.4 µM) | 7.8 (≈ 20.4 µM) | > 125 | 15.6 (≈ 40.8 µM) | > 125 | inactive | > 125 | O=c1cc(CO)oc(C2C=C(c3ccc(Cl)cc3)Oc3ccccc32)c1O (configuration not stated) | > 125 | 7.8 (≈ 20.4 µM) | > 125 | 15.6 (≈ 40.8 µM) |
| > 125 | – | – | > 125 | – | > 125 | > 125 | inactive | > 125 | O=c1cc(CO)oc(C2C=C(c3cccc(O)c3)Oc3ccccc32)c1O (configuration not stated) | > 125 | – | – | – |
| > 125 | 8.3 (≈ 23.8 µM) | 3.4 (≈ 9.76 µM) | 3.9 (≈ 11.2 µM) | 5.2 (≈ 14.9 µM) | 7.8 (≈ 22.4 µM) | > 125 | inactive | 7.8 (≈ 22.4 µM) | O=c1cc(CO)oc(C2C=C(c3ccccc3)Oc3ccccc32)c1O (configuration not stated) | > 125 | 7.8 (≈ 22.4 µM) | 7.8 (≈ 22.4 µM) | 15.6 (≈ 44.8 µM) |
